Columns and labels:
[1] = system: CYPES (Cyperus esculentus, yellow nutsedge); assay: Postemergence foliar-applied weed control, direct seeded rice, greenhouse (Example I); assay type: in vivo, Cyperus esculentus L.; conditions: 20 DAA
Text: (§1) Seeds or nutlets of the desired test plant species were planted in a soil matrix prepared by mixing a loam or sandy loam soil (e.g., 28.6 percent silt, 18.8 percent clay, and 52.6 percent sand, with a pH of about 5.8 and an organic matter content of about 1.8 percent) and calcareous grit in an 80 to 20 ratio. The soil matrix was contained in plastic pots with a volume of 1 quart and a surface area of 83.6 square centimeters (cm^2). When required to ensure good germination and healthy plants, a fungicide treatment and/or other chemical or physical treatment was applied. The plants were grown for 8-22 days in a greenhouse with an approximate 14 h photoperiod which was maintained at about 29° C. during the day and 26° C. during the night. Nutrients (Peters Excel® 15-5-15 5-Ca 2-Mg and iron chelate) were applied in the irrigation solution as needed and water was added on a regular basis. Supplemental lighting was provided with overhead metal halide 1000-Watt lamps as necessary. The plants were employed for testing when they reached the first through fourth true leaf stage.
(§2) Treatments consisted of the acid or esters of 4-amino-3-chloro-5-fluoro-6-(4-chloro-2-fluoro-3-methoxy-phenyl)pyridine-2-carboxylic acid (Compound A), each formulated as an SC, and various herbicidal components alone and in combination. Forms of compound A were applied on an acid equivalent basis.
(§3) Other herbicidal components were applied on an active ingredient basis and included acetolactate synthase (ALS)-inhibiting herbicides (sulfonylurea chemical class) azimsulfuron formulated as Gulliver®, bensulfuron-methyl formulated as Londax® 60DF, cyclosulfamuron (technical material), ethoxysulfuron formulated as Sunrice® 15 WDG, flazasulfuron formulated as Katana®, flucetosulfuron formulated as Sukedachi® 1KG G, foramsulfuron formulated as Option®, imazosulfuron formulated as Brazzos® WG, iodosulfuron-methyl-sodium formulated as Hussar®, metsulfuron-methyl formulated as Lorate®, nicosulfuron formulated as Accent®, orthosulfamuron formulated as Strada® WG, primisulfuron-methyl (technical material), propyrisulfuron formulated as Zeta One®, rimsulfuron formulated as Matrix® WG, sulfometuron-methyl formulated as Oust®, and trifloxysulfuron-sodium formulated as Monument® 75WG.
(§4) Treatment requirements were calculated based upon the rates being tested, the concentration of active ingredient or acid equivalent in the formulation, and a 12 mL application volume at a rate of 187 L/ha.
(§5) For treatments comprised of formulated compounds, measured amounts of compounds were placed individually in 25 mL glass vials and diluted in a volume of 1.25% (v/v) Agri-Dex® crop oil concentrated to obtain 12× stock solutions. […] Application solutions were prepared by adding an appropriate amount of each stock solution (e.g., 1 mL) and diluted to the appropriate final concentrations with the addition of 10 mL of an aqueous mixture of 1.25% (v/v) crop oil concentrate so that the final spray solutions contained 1.25+/−0.05% (v/v) Agrcrop oil concentrate.
(§6) For treatments comprised of formulated and technical compounds, weighed amounts of the technical materials were placed individually in 25 mL glass vials and dissolved in a volume of 97:3 v/v acetone/DMSO to obtain 12× stock solutions, and measured amounts of the formulated compounds were placed individually in 25 mL glass vials and diluted in a volume of 1.25% (v/v) crop oil concentrate to obtain 12× stock solutions. […] Application solutions were prepared by adding an appropriate amount of each stock solution (e.g., 1 mL) and diluted to the appropriate final concentrations with the addition of an appropriate amount of an aqueous mixture of 1.5% (v/v) crop oil concentrate so that the final spray solutions contained 1.25% (v/v) crop oil concentrate. […]

[2] = system: CYPIR (Cyperus iria, rice flatsedge); assay: as above; assay type: in vivo, Cyperus iria L.; conditions: 20 DAA
Text: as §1, §2, §3, §4, §5, §6

[3] = system: LEFCH (Leptochloa chinensis, Chinese sprangletop); assay: In-water applied weed control, transplanted paddy rice, greenhouse (Example II); assay type: in vivo, Leptochloa chinensis (L.) Nees; conditions: Table 43, 17.5 gai/ha alone
Method: (§7) Weed seeds or nutlets of the desired test plant species were planted in puddled soil (mud) prepared by mixing a shredded, non-sterilized mineral soil (50.5 percent silt, 25.5 percent clay, and 24 percent sand, with a pH of about 7.6 and an organic matter content of about 2.9 percent) and water at a 1:1 volumetric ratio. The prepared mud was dispensed in 365 mL aliquots into 16-ounce (oz.) non-perforated plastic pots with a surface area of 86.59 square centimeters (cm^2) leaving a headspace of 3 centimeters (cm) in each pot. Rice seeds were planted in Sun Gro MetroMix® 306 planting mixture, which typically has a pH of 6.0 to 6.8 and an organic matter content of about 30 percent, in plastic plug trays. Seedlings at the second or third leaf stage of growth were transplanted into 860 mL of mud contained in 32-oz. non-perforated plastic pots with a surface area of 86.59 cm^2 4 days prior to herbicide application. The paddy was created by filling the headspace of the pots with 2.5 to 3 cm of water. When required to ensure good germination and healthy plants, a fungicide treatment and/or other chemical or physical treatment was applied. The plants were grown for 4-22 days in a greenhouse with an approximate 14 h photoperiod which was maintained at about 29′C during the day and 26° C. during the night. Nutrients were added as Osmocote® (19:6:12, N:P:K+minor nutrients) at 2 g per 16-oz. pot and 4 g per 32-oz. pot. Water was added on a regular basis to maintain the paddy flood, and supplemental lighting was provided with overhead metal halide 1000-Watt lamps as necessary. The plants were employed for testing when they reached the first through fourth true leaf stage.
(§8) Treatments consisted of the acid or esters of 4-amino-3-chloro-5-fluoro-6-(4-chloro-2-fluoro-3-methoxy-phenyl)pyridine-2-carboxylic acid (compound A) each formulated as an SC and various herbicidal components alone and in combination. Forms of compound A were applied on an acid equivalent basis.
(§9) Other herbicidal components were applied on an active ingredient basis and included acetolactate synthase (ALS)-inhibiting herbicides (sulfonylurea chemical class), azimsulfuron formulated as Gulliver®, bensulfuron-methyl formulated as Londax® 60DF, cyclosulfamuron (technical grade materail), ethoxysulfuron formulated as Sunrice® 15 WDG, flucetosulfuron formulated as Sukedachi® 1KG G, imazosulfuron formulated as Brazzos®, metsulfuron-methyl formulated as Lorate®, nicosulfuron formulated as Accent®, orthosulfamuron formulated as Strada® WG, propyrisulfuron formulated as Zeta One®, and rimsulfuron formulated as Matrix® WG.
(§10) Treatment requirements for each compound or herbicidal component were calculated based upon the rates being tested, the concentration of active ingredient or acid equivalent in the formulation, an application volume of 2 mL per component per pot, and an application area of 86.59 cm^2 per pot.
(§11) For formulated compounds, a measured amount was placed in an individual 100 or 200 mL glass vial and was dissolved in a volume of 1.25% (v/v) Agri-Dex® crop oil concentrate to obtain application solutions.
(§12) For technical grade compounds, a weighed amount was placed in an individual 100 to 200 mL glass vial and was dissolved in a volume of acetone to obtain concentrated stock solutions. […] The concentrated stock solutions obtained were diluted with an equivalent volume of an aqueous mixture containing 2.5% (v/v) crop oil concentrate so that the final application solutions contained 1.25% (v/v) crop oil concentrate.
(§13) Applications were made by injecting with a pipetter appropriate amounts of the application solutions, individually and sequentially, into the aqueous layer of the paddy. Control plants were treated in the same manner with the solvent blank. Applications were made so that all treated plant material received the same concentrations of acetone and crop oil concentrate. […]

[4] = system: ECHOR (Echinochloa oryzoides, early watergrass); assay: as above; assay type: in vivo, Echinochloa oryzoides (Ard.) Fritsch
Method: as §7, §8, §9, §10, §11, §12, §13

[5] = system: LEFCH (Leptochloa chinensis, Chinese sprangletop); assay: Postemergence foliar-applied weed control, direct seeded rice, greenhouse (Example I); assay type: in vivo, Leptochloa chinensis (L.) Nees; conditions: Dinebra chinensis, post-emergence, 480 h, 20 DAA, read-out: Visual Weed Control (%) Obs
Text: as §1, §2, §3, §4, §5, §6

[6] = system: DIGSA (Digitaria sanguinalis, large crabgrass); assay: as above; assay type: in vivo, Digitaria sanguinalis (L.) Scop.; conditions: 20 DAA
Text: as §1, §2, §3, §4, §5, §6

[7] = system: CYPRO (Cyperus rotundus, purple nutsedge); assay: In-water applied weed control, transplanted paddy rice, greenhouse (Example II); assay type: in vivo, Cyperus rotundus L.
Method: as §7, §8, §9, §10, §11, §12, §13

[8] = system: CIRAR (Cirsium arvense, Canada thistle); assay: Post-emergence foliar-applied weed control in cereal crops, greenhouse (Example III); assay type: in vivo, Cirsium arvense (L.) Scop.; conditions: Cirsium arvense, post-emergence; Table 58 (cereal); foliar-applied; after 20-22 days; 3.75 gai/ha alone; read-out: Weed Control CIRAR Obs
Method: Seeds of the desired test plant species were planted in Sun Gro MetroMix® 306 planting mixture, which typically has a pH of 6.0 to 6.8 and an organic matter content of about 30 percent, in plastic pots with a surface area of 103.2 square centimeters (cm^2). When required to ensure good germination and healthy plants, a fungicide treatment and/or other chemical or physical treatment was applied. The plants were grown for 7-36 days in a greenhouse with an approximate 14 hour photoperiod which was maintained at about 18° C. during the day and 17° C. during the night. Nutrients and water were added on a regular basis and supplemental lighting was provided with overhead metal halide 1000-Watt lamps as necessary. The plants were employed for testing when they reached the second or third true leaf stage.
Treatments consisted of the benzyl ester of 4-amino-3-chloro-5-fluoro-6-(4-chloro-2-fluoro-3-methoxy-phenyl)pyridine-2-carboxylic acid (Compound A), formulated as an SC (suspension concentrate), and a second cereal herbicide alone and in combination.
Measured aliquot of benzyl ester of 4-amino-3-chloro-5-fluoro-6-(4-chloro-2-fluoro-3-methoxy-phenyl)pyridine-2-carboxylic acid (Compound A) was placed in 25 milliliter (mL) glass vials and diluted in a volume of 1.25% (v/v) Agri-dex crop oil concentrated to obtain stock solutions. Compound requirements are based upon a 12 mL application volume at a rate of 187 liters per hectare (L/ha). Spray solutions of the second cereal herbicide and experimental compound mixtures were prepared by adding the stock solutions to the appropriate amount of dilution solution to form 12 mL spray solution with active ingredients in two- and three-way combinations. Formulated compounds were applied to the plant material with an overhead Mandel track sprayer equipped with an 8002E nozzle calibrated to deliver 187 L/ha over an application area of 0.503 square meters (m^2) at a spray height of 18 inches (46 cm) above average plant canopy. Control plants were sprayed in the same manner with the solvent blank.
The treated plants and control plants were placed in a greenhouse as described above and watered by sub-irrigation to prevent wash-off of the test compounds. After 20-22 days, the condition of the test plants as compared with that of the control plants was determined visually and scored on a scale of 0 to 100 percent where 0 corresponds to no injury and 100 corresponds to complete kill.
Colby's equation was used to determine the herbicidal effects expected from the mixtures (Colby, S. R. 1967. Calculation of the synergistic and antagonistic response of herbicide combinations. Weeds 15:20-22.).
The following equation was used to calculate the expected activity of mixtures containing two active ingredients, A and B: Expected=A+B−(A×B/100)

[9] = system: BRAPP (Brachiaria platyphylla, broadleaf signalgrass); assay: Postemergence foliar-applied weed control, direct seeded rice, greenhouse (Example I); assay type: in vivo, Brachiaria platyphylla (Griseb.) Nash; conditions: Urochloa platyphylla, post-emergence, 480 h, 20 DAA, read-out: Visual Weed Control (%) Obs
Text: as §1, §2, §3, §4, §5, §6

[10] = system: SCPMA (Bolboschoenus maritimus or Schoenoplectus maritimus, sea clubrush); assay: In-water applied weed control, transplanted paddy rice, greenhouse (Example II); assay type: in vivo, Bolboschoenus maritimus (L.) Palla
Method: as §7, §8, §9, §10, §11, §12, §13

COc1cc(OC)nc(NC(=O)NS(=O)(=O)c2ncccc2C(=O)N(C)C)n1 [Nicosulfuron, 2-[[[[(4,6-dimethoxy-2-pyrimidinyl)amino]carbonyl]amino]sulfonyl]-N,N-dimethyl-3-pyridinecarboxamide, reference compound]
Visual Weed Control (%) Obs ([1]; 8.75 gai/ha): 10%
Visual Weed Control (%) Obs ([1]; 17.5 gai/ha): 60%
Visual Weed Control (%) Obs ([1]; 35 gai/ha): 70%
Visual Weed Control (%) Obs ([2]; 8.75 gai/ha): 80%
Visual Weed Control (%) - 20 DAA LEFCH Obs [3]: 60%
Visual Weed Control (%) - 20 DAA ECHOR Obs ([4]; Table 43, 17.5 gai/ha alone): 0%
Visual Weed Control (%) - 20 DAA ECHOR Obs ([4]; Table 44, 17.5 gai/ha alone): 0%
Visual Weed Control (%) - 20 DAA ECHOR Obs ([4]; Table 44, 35 gai/ha alone): 50%
pest or weed control at 35 g/ha ([5]; 35 gai/ha): 75%
Visual Weed Control (%) Obs ([6]; 8.75 gai/ha): 30%
Visual Weed Control (%) Obs ([6]; 17.5 gai/ha): 55%
Visual Weed Control (%) - 20 DAA CYPRO Obs ([7]; Table 43, 17.5 gai/ha alone): 30%
Visual Weed Control (%) - 20 DAA CYPRO Obs ([7]; Table 43, 35 gai/ha alone): 70%

COC(=O)c1sccc1S(=O)(=O)NC(=O)Nc1nc(C)nc(OC)n1 [Thifensulfuron-methyl]
pest or weed control at 3.75 g/ha [8]: 35%

COc1cc(OC)nc(NC(=O)NS(=O)(=O)Nc2ccccc2C(=O)N(C)C)n1 [Orthosulfamuron, 2-[[[[[(4,6-dimethoxy-2-pyrimidinyl)amino]carbonyl]amino]sulfonyl]amino]-N,N-dimethylbenzamide]
pest or weed control at 7.5 g/ha ([9]; 7.5 gai/ha): 0%
pest or weed control at 15 g/ha ([9]; 15 gai/ha): 30%
Visual Weed Control (%) - 20 DAA SCPMA Obs ([10]; Table 45, 60 gai/ha alone): 85%
Visual Weed Control (%) - 20 DAA SCPMA Obs ([10]; Table 46, 60 gai/ha alone): 85%
Visual Weed Control (%) Obs ([1]; 7.5 gai/ha): 0%
Visual Weed Control (%) Obs ([1]; 15 gai/ha): 30%
Visual Weed Control (%) Obs ([2]; 7.5 gai/ha): 50%
Visual Weed Control (%) Obs ([2]; 15 gai/ha): 75%
Visual Weed Control (%) Obs ([2]; 30 gai/ha): 65%
Visual Weed Control (%) - 21 DAA ECHOR Obs ([4]; Table 46, 15 gai/ha alone): 10%
pest or weed control at 7.5 g/ha ([5]; 7.5 gai/ha): 0%
pest or weed control at 15 g/ha ([5]; 15 gai/ha): 0%
